Literature values, collected in US20210308071A1, “Treatment method to abort and or reduce the severity of upper respiratory viral illness as well as to prevent upper respiratory viral illness in humans” (priority 2020, published 2021).
Where two headings read alike, the source gives them in different places.

Details: for orally administered dose excreted as the glucuronic acid conjugate within 24 hours: humans

administered dose detected as the glucuronic acid conjugate in human urine (10 hours after ingestion of 2000 mg): 81% | orally administered dose excreted as the glucuronic acid conjugate within 24 hours (oral 1000 mg): 81% | orally administered dose excreted as the glucuronic acid conjugate within 24 hours (oral 2000 mg): 94%
SMILES: CC1(C)C2CCC1(C)C(O)C2 (stereo not drawn) [Borneol]
